Data from PubChem BioAssay (NCI).
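Protocol summary: plate cells (96-well), add compound at 5 concentrations, incubate 48 h, interpolate endpoints linearly. GI50 is the concentration that inhibits growth by half. TGI denotes the concentration required for complete inhibition of growth.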

Legend:
Assay in all cases: NCI-60 cell line screen, 48 h
HCT-116 colon = system: HCT-116 colon
TK-10 renal = system: TK-10 renal
A498 renal = system: A498 renal
K-562 leukemia = system: K-562 leukemia
CAKI-1 renal = system: CAKI-1 renal
CCRF-CEM leukemia = system: CCRF-CEM leukemia
HCC-2998 colon = system: HCC-2998 colon
RPMI-8226 leukemia = system: RPMI-8226 leukemia
ACHN renal = system: ACHN renal
SW-620 colon = system: SW-620 colon
NCI-H522 lung = system: NCI-H522 lung
786-0 renal = system: 786-0 renal
SF-268 CNS = system: SF-268 CNS
IGROV1 ovarian = system: IGROV1 ovarian
KM12 colon = system: KM12 colon
HOP-92 NSCLC = system: HOP-92 NSCLC
PC-3 prostate = system: PC-3 prostate
DU-145 prostate = system: DU-145 prostate
MDA-MB-435 = system: MDA-MB-435
EKVX NSCLC = system: EKVX NSCLC
LOX IMVI melanoma = system: LOX IMVI melanoma
SN12C renal = system: SN12C renal
NCI-H226 lung = system: NCI-H226 lung
A549 NSCLC = system: A549 NSCLC
OVCAR-5 ovarian = system: OVCAR-5 ovarian
SF-539 CNS = system: SF-539 CNS
COLO 205 colon = system: COLO 205 colon
OVCAR-8 ovarian = system: OVCAR-8 ovarian
SF-295 CNS = system: SF-295 CNS
SK-MEL-5 melanoma = system: SK-MEL-5 melanoma
M14 melanoma = system: M14 melanoma
HS 578T breast = system: HS 578T breast
OVCAR-3 ovarian = system: OVCAR-3 ovarian
T-47D breast = system: T-47D breast
SK-MEL-28 melanoma = system: SK-MEL-28 melanoma
MDA-MB-468 breast = system: MDA-MB-468 breast
MALME-3M melanoma = system: MALME-3M melanoma
NCI-H460 lung = system: NCI-H460 lung
SNB-19 CNS = system: SNB-19 CNS
MOLT-4 leukemia = system: MOLT-4 leukemia
UACC-257 melanoma = system: UACC-257 melanoma
NCI/ADR-RES ovarian = system: NCI/ADR-RES ovarian
HL-60(TB) leukemia = system: HL-60(TB) leukemia
BT-549 breast = system: BT-549 breast
HT29 colon = system: HT29 colon
UACC-62 melanoma = system: UACC-62 melanoma
NCI-H23 lung = system: NCI-H23 lung
OVCAR-4 ovarian = system: OVCAR-4 ovarian
HCT-15 colon = system: HCT-15 colon
SK-OV-3 ovarian = system: SK-OV-3 ovarian
SR leukemia = system: SR leukemia
RXF 393 renal = system: RXF 393 renal
U251 CNS = system: U251 CNS
HOP-62 NSCLC = system: HOP-62 NSCLC
MCF7 breast = system: MCF7 breast
MDA-MB-231 breast = system: MDA-MB-231 breast
SK-MEL-2 melanoma = system: SK-MEL-2 melanoma
UO-31 renal = system: UO-31 renal

## NCCCCn1c(SCCc2c[nH]c3ccccc23)nnc1-c1ccc2ccccc2n1
HCT-116 colon
  GI50: 4.74 µM
  TGI: 9.31 µM
TK-10 renal
  GI50: 5.91 µM
  TGI: 10.9 µM
A498 renal
  GI50: 6.06 µM
  TGI: 11.2 µM
K-562 leukemia
  GI50: 5.58 µM
  TGI: 13.2 µM
CAKI-1 renal
  GI50: 5.74 µM
  TGI: 11.9 µM
CCRF-CEM leukemia
  GI50: 7.21 µM
  TGI: 20.3 µM
HCC-2998 colon
  GI50: 6.01 µM
  TGI: 10.9 µM
RPMI-8226 leukemia
  GI50: 5.41 µM
  TGI: 13.9 µM
ACHN renal
  GI50: 5.42 µM
  TGI: 10.3 µM
SW-620 colon
  GI50: 5.51 µM
  TGI: 11.1 µM
NCI-H522 lung
  GI50: 5.35 µM
  TGI: 10.4 µM
786-0 renal
  GI50: 5.9 µM
  TGI: 10.9 µM
SF-268 CNS
  GI50: 5.69 µM
  TGI: 12.1 µM
IGROV1 ovarian
  GI50: 5.84 µM
  TGI: 11.1 µM
KM12 colon
  GI50: 6.54 µM
  TGI: 12.3 µM
HOP-92 NSCLC
  GI50: 4.59 µM
  TGI: 10.5 µM
PC-3 prostate
  GI50: 5.35 µM
  TGI: 11.6 µM
DU-145 prostate
  GI50: 6.51 µM
  TGI: 12.2 µM
MDA-MB-435
  GI50: 6.27 µM
  TGI: 11.8 µM
EKVX NSCLC
  GI50: 5.32 µM
  TGI: 10.6 µM
LOX IMVI melanoma
  GI50: 5.28 µM
  TGI: 10 µM
SN12C renal
  GI50: 5.6 µM
  TGI: 10.5 µM
NCI-H226 lung
  GI50: 5.29 µM
  TGI: 10.8 µM
A549 NSCLC
  GI50: 5.1 µM
  TGI: 9.87 µM
OVCAR-5 ovarian
  GI50: 5.66 µM
  TGI: 10.8 µM
SF-539 CNS
  GI50: 5.85 µM
  TGI: 10.6 µM
COLO 205 colon
  GI50: 4.54 µM
  TGI: 9.3 µM
OVCAR-8 ovarian
  GI50: 5.63 µM
  TGI: 10.8 µM
SF-295 CNS
  GI50: 5.65 µM
  TGI: 10.7 µM
SK-MEL-5 melanoma
  GI50: 5.84 µM
  TGI: 10.6 µM
M14 melanoma
  GI50: 5.48 µM
  TGI: 10.4 µM
HS 578T breast
  GI50: 5.6 µM
  TGI: 14.6 µM
OVCAR-3 ovarian
  GI50: 5.16 µM
  TGI: 10.2 µM
T-47D breast
  GI50: 6.08 µM
  TGI: 14.6 µM
SK-MEL-28 melanoma
  GI50: 5.94 µM
  TGI: 10.8 µM
MDA-MB-468 breast
  GI50: 4.94 µM
  TGI: 9.58 µM
MALME-3M melanoma
  GI50: 5.35 µM
  TGI: 10.3 µM
NCI-H460 lung
  GI50: 6.17 µM
  TGI: 11.7 µM
SNB-19 CNS
  GI50: 6.3 µM
  TGI: 12.8 µM
MOLT-4 leukemia
  GI50: 5.47 µM
  TGI: 13.1 µM
UACC-257 melanoma
  GI50: 5.78 µM
  TGI: 11 µM
NCI/ADR-RES ovarian
  GI50: 6.29 µM
  TGI: 13.4 µM
HL-60(TB) leukemia
  GI50: 4.99 µM
  TGI: 11.4 µM
BT-549 breast
  GI50: 5.67 µM
  TGI: 10.7 µM
HT29 colon
  GI50: 5.28 µM
  TGI: 10.4 µM
UACC-62 melanoma
  GI50: 5.46 µM
  TGI: 10.2 µM
NCI-H23 lung
  GI50: 5.57 µM
  TGI: 10.5 µM
OVCAR-4 ovarian
  GI50: 5.75 µM
  TGI: 12 µM
HCT-15 colon
  GI50: 6.26 µM
  TGI: 11.5 µM
SK-OV-3 ovarian
  GI50: 5.69 µM
  TGI: 11.2 µM
SR leukemia
  GI50: 5.88 µM
  TGI: 12.7 µM
RXF 393 renal
  GI50: 4.8 µM
  TGI: 9.4 µM
U251 CNS
  GI50: 5.36 µM
  TGI: 10.2 µM
HOP-62 NSCLC
  GI50: 5.35 µM
  TGI: 10.5 µM
MCF7 breast
  GI50: 5.38 µM
  TGI: 10.4 µM

## COc1cc(/C=C/C(=O)c2cnn(-c3cc(=O)[nH]c4ccc(Cl)cc34)c2C)cc(OC)c1OC
HCT-116 colon
  GI50: 3.58 µM
  TGI: 17.5 µM
TK-10 renal
  GI50: 3.26 µM
  TGI: > 100 µM
A498 renal
  GI50: 34.2 µM
  TGI: 87.4 µM
K-562 leukemia
  GI50: 2.68 µM
  TGI: > 100 µM
CAKI-1 renal
  GI50: 4.17 µM
  TGI: 22.5 µM
CCRF-CEM leukemia
  GI50: 2.42 µM
  TGI: > 100 µM
HCC-2998 colon
  GI50: 2.78 µM
  TGI: 8.21 µM
RPMI-8226 leukemia
  GI50: 2.42 µM
  TGI: > 100 µM
ACHN renal
  GI50: 1.76 µM
  TGI: 3.68 µM
MDA-MB-231 breast
  GI50: 3.3 µM
  TGI: 14.9 µM
SW-620 colon
  GI50: 2.97 µM
  TGI: 11.5 µM
NCI-H522 lung
  GI50: 2.66 µM
  TGI: 8.38 µM
786-0 renal
  GI50: 4.09 µM
  TGI: 21.1 µM
SF-268 CNS
  GI50: 3.42 µM
  TGI: > 100 µM
IGROV1 ovarian
  GI50: 2.54 µM
  TGI: 7.18 µM
KM12 colon
  GI50: 3.37 µM
  TGI: 15 µM
HOP-92 NSCLC
  GI50: 7.31 µM
  TGI: 99.8 µM
PC-3 prostate
  GI50: 6.28 µM
  TGI: > 100 µM
DU-145 prostate
  GI50: 3.3 µM
  TGI: > 100 µM
MDA-MB-435
  GI50: 2.6 µM
  TGI: 8.12 µM
EKVX NSCLC
  GI50: 2.96 µM
  TGI: 14.1 µM
SN12C renal
  GI50: 2.64 µM
  TGI: 9.24 µM
NCI-H226 lung
  GI50: 2.89 µM
  TGI: 9.13 µM
A549 NSCLC
  GI50: 3.09 µM
  TGI: > 100 µM
OVCAR-5 ovarian
  GI50: 3.32 µM
  TGI: 13.4 µM
SF-539 CNS
  GI50: 2.08 µM
  TGI: 4.62 µM
COLO 205 colon
  GI50: 3.53 µM
  TGI: 14 µM
OVCAR-8 ovarian
  GI50: 2.06 µM
  TGI: 4.95 µM
SF-295 CNS
  GI50: 3.16 µM
  TGI: 11.5 µM
SK-MEL-5 melanoma
  GI50: 3.22 µM
  TGI: 12 µM
M14 melanoma
  GI50: 3.2 µM
  TGI: 19.8 µM
HS 578T breast
  GI50: 3.31 µM
  TGI: > 100 µM
OVCAR-3 ovarian
  GI50: 3.06 µM
  TGI: 9.9 µM
T-47D breast
  GI50: 3.08 µM
  TGI: > 100 µM
SK-MEL-28 melanoma
  GI50: 3.36 µM
  TGI: 13.3 µM
MDA-MB-468 breast
  GI50: 1.8 µM
  TGI: 4.41 µM
MALME-3M melanoma
  GI50: 5.1 µM
  TGI: 27.2 µM
NCI-H460 lung
  GI50: 1.88 µM
  TGI: 4.32 µM
SNB-19 CNS
  GI50: 3.36 µM
  TGI: 14.4 µM
UACC-257 melanoma
  GI50: 7.19 µM
  TGI: 64.4 µM
BT-549 breast
  GI50: 2.76 µM
  TGI: 9.98 µM
HT29 colon
  GI50: 2.5 µM
  TGI: 6.58 µM
UACC-62 melanoma
  GI50: 3.36 µM
  TGI: 15 µM
NCI-H23 lung
  GI50: 2.21 µM
  TGI: 5.9 µM
OVCAR-4 ovarian
  GI50: 3.58 µM
  TGI: > 100 µM
SK-MEL-2 melanoma
  GI50: 2.98 µM
  TGI: 11.8 µM
HCT-15 colon
  GI50: 1.93 µM
  TGI: 5.01 µM
SK-OV-3 ovarian
  GI50: 4.68 µM
  TGI: > 100 µM
UO-31 renal
  GI50: 3.26 µM
  TGI: 14.5 µM
SR leukemia
  GI50: 2.02 µM
  TGI: > 100 µM
RXF 393 renal
  GI50: 2.08 µM
  TGI: 4.95 µM
U251 CNS
  GI50: 2.83 µM
  TGI: > 100 µM
HOP-62 NSCLC
  GI50: 3.57 µM
  TGI: 25.8 µM
MCF7 breast
  GI50: 2.48 µM
  TGI: 10.2 µM
